Test results: patent publication US20050187302A1, “Method for treatment or prevention of osteoporosis in individuals with high bone turnover” (Hormos Medical Corporation, priority 2004, published 2005)
Where two headings read alike, the source gives them in different places.

Columns and labels:
postmenopausal women = postmenopausal women with high bone marker levels at baseline, daily doses 60 mg and 90 mg, 12 weeks
Method: In the clinical trials, bone turnover was evaluated by measuring the levels of bone formation markers in serum and bone resorption markers in urine. Both bone resorption markers e.g. amino terminal telopeptide of type I collagen (U-NTX) and carboxy terminal telopeptide of type I collagen (U-CTX) and formation markers e.g. amino terminal propeptide of type I procollagen (S-PINP) and carboxy terminal propeptide of type I procollagen (S-PICP) are increased in menopause, indicating high bone turnover.
Most of the women had normal bone marker levels at baseline. […] The upper limit of normal range in women was 84 μg/l for S-PINP, 65 nmol/mmol Crea for U-NTX, 170 μg/l for S-PICP and 680 μg/mmol Crea for U-CTX.

[1] = system: ovariectomized (OVX) female rats; conditions: female rats 2 months old, ospemifene 10 mg/kg, change from baseline, n = 6
Method: (§1) High bone turnover was induced to 2-4 months old female rats by ovariectomy (OVX). Treatment with ospemifene was started at different time points after OVX: 1 day, 1, 2, and 3 months after OVX. Bone resorption was evaluated in short-term by bone specific TRAP5b, which is a […] secreted specifically by osteoclasts, and later by pyridinoline/deoxypyridinoline cross links, which are degradation products of bone collagen and excreted in the urine. Finally, during autopsy, usually after 3 months treatment, trabecular bone mineral density was measured.

[2] = system: ovariectomized (OVX) female rats; conditions: for Urine total pyridinoline/deoxypyridoline crosslinks, change from base line at 30 days: started one day after OVX, 30 days after OVX; for Trabecular BMD mg/cm^2: 3 months treatment, tibial trabecular bone
Method: as §1
Female rats, age about 4 months, were ovariectomized. Treatment with vehicle or ospemifene was started at different periods after OVX (from one day to 3 months). The ospemifene doses were 5, 10 or 25 mg/kg and the treatment period was 3 months. Evaluation of the bone occurred by bone mineral density measurement of tibial trabecular bone after the treatment and in some groups also by bone collagen degradation products excreted in the urine.

`OCCOc1ccc(/C(=C(/CCCl)c2ccccc2)c2ccccc2)cc1` [Ospemifene] was tested. Which “Change in bone formation and resorption markers (S-PINP, S-PICP, U-CTX, U-NTX) (in words)” value (postmenopausal women) did it give?
The value was “large decrease both in formation and resorption bone markers”.

What about the “Change of TRAP5b activity in serum (%) 2 days after OVX” value [1] of the same molecule?
Its value is −23.3 ± 5.8%.

What about the “Urine total pyridinoline/deoxypyridoline crosslinks, change from base line at 30 days” value ([2]; 5 mg/kg daily) of the same molecule?
The value was 55 ± 16.

What about the “Trabecular BMD mg/cm^2” value ([2]; 5 mg/kg, treatment started 1 day after OVX, n = 20) of the same molecule?
The value was 374 ± 21 mg/cm^2.

And the “Trabecular BMD mg/cm^2” value ([2]; 10 mg/kg, treatment started 1 month after OVX, n = 8)?
The value was 138 ± 24 mg/cm^2.

What about the “Trabecular BMD mg/cm^2” value ([2]; 10 mg/kg, treatment started 2 months after OVX, n = 8) of the same molecule?
Its value is 78 ± 14 mg/cm^2.

What about the “Trabecular BMD mg/cm^2” value ([2]; 10 mg/kg, treatment started 3 months after OVX, n = 8) of the same molecule?
Its value is 78 ± 17 mg/cm^2.

And the “Urine total pyridinoline/deoxypyridoline crosslinks, change from base line at 30 days” value ([2]; 25 mg/kg daily)?
Its value is 33 ± 20.

What about the “Trabecular BMD mg/cm^2” value ([2]; 25 mg/kg, treatment started 1 day after OVX, n = 20) of the same molecule?
Its value is 392 ± 15 mg/cm^2.

What about the “Excretion of crosslinks, resorption marker (in words)” value ([2]; first month after OVX, high bone turnover) of the same molecule?
The value was “significantly decreases the excretion of crosslinks”.

What about the “Effect on OVX-induced bone loss (in words)” value ([2]; treatment started 1 month after OVX, bone turnover high) of the same molecule?
The value was “significant beneficial bone effect”.

What about the “Effect on OVX-induced bone loss (in words)” value ([2]; treatment started 2 months after OVX, bone turnover markedly decreased) of the same molecule?
The value was “modest beneficial bone effect”.

And the “Effect on OVX-induced bone loss (in words)” value ([2]; treatment started 3 months after OVX, bone turnover low)?
Its value is “almost lost the benefial bone effect”.

What about the “Effect on OVX-induced bone loss (in words)” value ([2]; treatment started 1 day after OVX, bone turnover very high) of the same molecule?
Its value is “able to prevent almost completely the OVX-induced bone loss”.
